Assay results published in the supplement of paper PMC10307832.

Legend:
Assay in all cases: relative viability (nuclei count vs DMSO), 5 days (fraction); higher = more cells survive
Pictilisib + Foretinib = compound: CS(=O)(=O)N1CCN(Cc2cc3nc(-c4cccc5[nH]ncc45)nc(N4CCOCC4)c3s2)CC1 [Pictilisib] + COc1cc2c(Oc3ccc(NC(=O)C4(C(=O)Nc5ccc(F)cc5)CC4)cc3F)ccnc2cc1OCCCN1CCOCC1 [Foretinib] (partner 0.25 µM)
Procedure, shortened: (§1)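 Nuclei were stained with Hoechst during a one-step fixation (final 0.05% Triton X-100, 1% formaldehyde, 1 ug/ml Hoechst) carried out 5 days after dosing, then counted on 4× images. The cells, lung cancer lines in 1536-well plates, had been dosed by pin tool the day after seeding with one drug alone or a fixed anchor-drug dose plus five library-drug doses (not always all listed) in √10 steps. Relative viability is the nuclei count in treated wells divided by that in vehicle wells, and each value is the median of duplicate plates.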

Pictilisib + Trametinib = compound: CS(=O)(=O)N1CCN(Cc2cc3nc(-c4cccc5[nH]ncc45)nc(N4CCOCC4)c3s2)CC1 [Pictilisib] + CC(=O)Nc1cccc(-n2c(=O)n(C3CC3)c(=O)c3c(Nc4ccc(I)cc4F)n(C)c(=O)c(C)c32)c1 [Trametinib] (partner 0.02 µM)
Procedure, shortened: as §1

MK-2206 + Pemetrexed = compound: NC1(c2ccc(-c3nc4ccn5c(=O)[nH]nc5c4cc3-c3ccccc3)cc2)CCC1 [MK-2206] + Nc1nc2[nH]cc(CCc3ccc(C(=O)N[C@@H](CCC(=O)O)C(=O)O)cc3)c2c(=O)[nH]1 [Pemetrexed] (partner 0.2 µM)
Procedure, shortened: as §1

Pictilisib + Dasatinib = compound: CS(=O)(=O)N1CCN(Cc2cc3nc(-c4cccc5[nH]ncc45)nc(N4CCOCC4)c3s2)CC1 [Pictilisib] + Cc1nc(Nc2ncc(C(=O)Nc3c(C)cccc3Cl)s2)cc(N2CCN(CCO)CC2)n1 [Dasatinib] (partner 0.075 µM)
Procedure, shortened: as §1

MK-2206 + OSI-027 = compound: NC1(c2ccc(-c3nc4ccn5c(=O)[nH]nc5c4cc3-c3ccccc3)cc2)CCC1 [MK-2206] + COc1cccc2cc(-c3nc([C@H]4CC[C@H](C(=O)O)CC4)n4ncnc(N)c34)[nH]c12 [OSI-027] (partner 0.5 µM)
Procedure, shortened: as §1

UMC-11
relative viability (Pictilisib + Foretinib; first compound 0.02 µM): 0.983 | relative viability (Pictilisib + Foretinib; first compound 0.06325 µM): 1.25 | relative viability (Pictilisib + Foretinib; first compound 0.6325 µM): 1.13 | relative viability (Pictilisib + Foretinib; first compound 2 µM): 0.979 | relative viability (Pictilisib + Trametinib; first compound 0.02 µM): 0.671 | relative viability (Pictilisib + Trametinib; first compound 0.06325 µM): 0.872 | relative viability (Pictilisib + Trametinib; first compound 0.6325 µM): 0.735 | relative viability (Pictilisib + Trametinib; first compound 2 µM): 0.674 | relative viability (MK-2206 + Pemetrexed; first compound 0.01 µM): 0.862 | relative viability (MK-2206 + Pemetrexed; first compound 0.03162 µM): 0.763 | relative viability (MK-2206 + Pemetrexed; first compound 0.3162 µM): 0.836 | relative viability (MK-2206 + Pemetrexed; first compound 1 µM): 0.791 | relative viability (Pictilisib + Dasatinib; first compound 0.02 µM): 0.449 | relative viability (Pictilisib + Dasatinib; first compound 0.06325 µM): 0.461 | relative viability (Pictilisib + Dasatinib; first compound 0.6325 µM): 0.458 | relative viability (Pictilisib + Dasatinib; first compound 2 µM): 0.515 | relative viability (MK-2206 + OSI-027; first compound 0.01 µM): 0.491 | relative viability (MK-2206 + OSI-027; first compound 0.03162 µM): 0.567 | relative viability (MK-2206 + OSI-027; first compound 0.3162 µM): 0.46 | relative viability (MK-2206 + OSI-027; first compound 1 µM): 0.521
